Test results reported in PubChem BioAssay AID1259407 (Chemical Carcinogenesis Research Information System (CCRIS), 2018).
Activity calls are given as the source filed them. No rule for the calls is given here.

System: CCRIS mutagenicity, Ames/micronucleus/aberration tests
Assay: CCRIS mutagenicity studies
[1] = Test System: AMES SALMONELLA TYPHIMURIUM, Strain/Indicator: TA98, Metabolic Activation: HAMSTER, LIVER, S-9, AROCLOR 1254 (10%), Method: PREINCUBATION
[2] = Test System: AMES SALMONELLA TYPHIMURIUM, Strain/Indicator: TA98, Metabolic Activation: RAT, LIVER, S-9, AROCLOR 1254 (10%), Method: PREINCUBATION
[3] = Test System: AMES SALMONELLA TYPHIMURIUM, Strain/Indicator: TA100, Metabolic Activation: HAMSTER, LIVER, S-9, AROCLOR 1254 (10%), Method: PREINCUBATION
[4] = Test System: AMES SALMONELLA TYPHIMURIUM, Strain/Indicator: TA1535, Metabolic Activation: HAMSTER, LIVER, S-9, AROCLOR 1254 (10%), Method: PREINCUBATION
[5] = Test System: AMES SALMONELLA TYPHIMURIUM, Strain/Indicator: TA1535, Metabolic Activation: NONE, Method: PREINCUBATION
[6] = Test System: AMES SALMONELLA TYPHIMURIUM, Strain/Indicator: TA1535, Metabolic Activation: RAT, LIVER, S-9, AROCLOR 1254 (10%), Method: PREINCUBATION
[7] = Test System: AMES SALMONELLA TYPHIMURIUM, Strain/Indicator: TA1537, Metabolic Activation: NONE, Method: PREINCUBATION
[8] = Test System: AMES SALMONELLA TYPHIMURIUM, Strain/Indicator: TA98, Metabolic Activation: NONE, Method: PREINCUBATION
[9] = Test System: AMES SALMONELLA TYPHIMURIUM, Strain/Indicator: TA100, Metabolic Activation: NONE, Method: PREINCUBATION

SMILES: O=[N+]([O-])c1cccc(O)c1
- mutagenic call (Test System: AMES SALMONELLA TYPHIMURIUM, Strain/Indicator: TA97, Metabolic Activation: HAMSTER, LIVER, S-9, AROCLOR 1254 (10%), Method: PREINCUBATION): inactive; negative
- mutagenic call (Test System: AMES SALMONELLA TYPHIMURIUM, Strain/Indicator: TA97, Metabolic Activation: NONE, Method: PREINCUBATION): inactive; negative
- mutagenic call (Test System: AMES SALMONELLA TYPHIMURIUM, Strain/Indicator: TA97, Metabolic Activation: RAT, LIVER, S-9, AROCLOR 1254 (10%), Method: PREINCUBATION): inactive; negative
- mutagenic call [1]: inactive; negative
- mutagenic call [2]: inactive; negative
- mutagenic call (Test System: AMES SALMONELLA TYPHIMURIUM, Strain/Indicator: TA98, Metabolic Activation: RAT, LIVER, S-9, KANECHLOR 500, Method: PREINCUBATION): active; positive
- mutagenic call (Test System: AMES SALMONELLA TYPHIMURIUM, Strain/Indicator: TA98, Method: PREINCUBATION): inactive; negative
- mutagenic call [3]: inactive; negative
- mutagenic call (Test System: AMES SALMONELLA TYPHIMURIUM, Strain/Indicator: TA100, Metabolic Activation: RAT, LIVER, S-9, AROCLOR 1254 (5, 10 OR 30%), Method: PREINCUBATION): inactive; negative
- mutagenic call (Test System: AMES SALMONELLA TYPHIMURIUM, Strain/Indicator: TA100, Metabolic Activation: RAT, LIVER, S-9, KANECHLOR 500, Method: PREINCUBATION): active; positive
- mutagenic call (Test System: AMES SALMONELLA TYPHIMURIUM, Strain/Indicator: TA100, Method: PREINCUBATION): inactive; negative
- mutagenic call [4]: inactive; negative
- mutagenic call [5]: inactive; negative
- mutagenic call [6]: inactive; negative
- mutagenic call (Test System: AMES SALMONELLA TYPHIMURIUM, Strain/Indicator: TA1535, Method: PREINCUBATION): inactive; negative
- mutagenic call [7]: inactive; negative
- mutagenic call (Test System: AMES SALMONELLA TYPHIMURIUM, Strain/Indicator: TA1537, Method: PREINCUBATION): inactive; negative
- mutagenic call (Test System: AMES SALMONELLA TYPHIMURIUM, Strain/Indicator: TA1538, Metabolic Activation: NONE, Method: PREINCUBATION): inactive; negative
- mutagenic call (Test System: AMES SALMONELLA TYPHIMURIUM, Strain/Indicator: TA1538, Method: PREINCUBATION): inactive; negative

SMILES: CC(=O)c1cc(N)ccc1OCC(O)CNC(C)(C)C (configuration not stated)
- mutagenic call [8]: inactive; negative
- mutagenic call (Test System: AMES SALMONELLA TYPHIMURIUM, Strain/Indicator: TA98, Metabolic Activation: RAT, LIVER, S-9, PHENOBARBITAL AND 5,6-BENZOFLAVONE (10 OR 50 µL/PLATE), Method: PREINCUBATION): inactive; negative
- mutagenic call [9]: inactive; negative
- mutagenic call (Test System: AMES SALMONELLA TYPHIMURIUM, Strain/Indicator: TA100, Metabolic Activation: RAT, LIVER, S-9, PHENOBARBITAL AND 5,6-BENZOFLAVONE (10 OR 50 µL/PLATE), Method: PREINCUBATION): inactive; negative
- mutagenic call [5]: inactive; negative
- mutagenic call (Test System: AMES SALMONELLA TYPHIMURIUM, Strain/Indicator: TA1535, Metabolic Activation: RAT, LIVER, S-9, PHENOBARBITAL AND 5,6-BENZOFLAVONE (10 OR 50 µL/PLATE), Method: PREINCUBATION): inactive; negative
- mutagenic call [7]: inactive; negative
- mutagenic call (Test System: AMES SALMONELLA TYPHIMURIUM, Strain/Indicator: TA1537, Metabolic Activation: RAT, LIVER, S-9, PHENOBARBITAL AND 5,6-BENZOFLAVONE (10 OR 50 µL/PLATE), Method: PREINCUBATION): inactive; negative
- mutagenic call (Test System: E. COLI, Strain/Indicator: WP2 UVRA, Metabolic Activation: NONE, Method: PREINCUBATION): inactive; negative
- mutagenic call (Test System: E. COLI, Strain/Indicator: WP2 UVRA, Metabolic Activation: RAT, LIVER, S-9, PHENOBARBITAL AND 5,6-BENZOFLAVONE, Method: PREINCUBATION): inactive; negative

SMILES: CCN
- mutagenic call [1]: inactive; negative
- mutagenic call [8]: inactive; negative
- mutagenic call [2]: inactive; negative
- mutagenic call [3]: inactive; negative
- mutagenic call [9]: inactive; negative
- mutagenic call (Test System: AMES SALMONELLA TYPHIMURIUM, Strain/Indicator: TA100, Metabolic Activation: RAT, LIVER, S-9, AROCLOR 1254 (10%), Method: PREINCUBATION): inactive; negative
- mutagenic call [4]: inactive; negative
- mutagenic call [5]: inactive; negative
- mutagenic call [6]: inactive; negative
- mutagenic call (Test System: AMES SALMONELLA TYPHIMURIUM, Strain/Indicator: TA1537, Metabolic Activation: HAMSTER, LIVER, S-9, AROCLOR 1254 (10%), Method: PREINCUBATION): inactive; negative
- mutagenic call [7]: inactive; negative
- mutagenic call (Test System: AMES SALMONELLA TYPHIMURIUM, Strain/Indicator: TA1537, Metabolic Activation: RAT, LIVER, S-9, AROCLOR 1254 (10%), Method: PREINCUBATION): inactive; negative

SMILES: C1=Cc2c3ccccc3cc3c2c1cc1ccccc13
- mutagenic call (Test System: CHINESE HAMSTER OVARY, Strain/Indicator: V-79/6-THIOGUANINE, Metabolic Activation: RAT, LIVER, S-9, AROCLOR 1254, Method: FLASK ASSAY): active; positive
- mutagenic call (Test System: CHINESE HAMSTER V-79, Strain/Indicator: V-79/6-THIOGUANINE, Metabolic Activation: RAT, LIVER, S-9, AROCLOR 1254, Method: SUSPENSION/PLATE): active; positive

SMILES: C[C@H](CCC(=O)O)[C@H]1CC[C@H]2[C@@H]3CC[C@@H]4C[C@H](O)CC[C@]4(C)[C@H]3CC(=O)[C@]12C
- mutagenic call (Test System: AMES SALMONELLA TYPHIMURIUM, Strain/Indicator: TA98, Metabolic Activation: NONE, Method: FLUCTUATION TEST): inactive; negative
- mutagenic call [8]: inactive; negative
- mutagenic call (Test System: AMES SALMONELLA TYPHIMURIUM, Strain/Indicator: TA98, Metabolic Activation: RAT, LIVER, S-9, PCB, Method: PREINCUBATION): inactive; negative
- mutagenic call (Test System: AMES SALMONELLA TYPHIMURIUM, Strain/Indicator: TA100, Metabolic Activation: NONE, Method: FLUCTUATION TEST): inactive; negative

SMILES: COP(=O)(OC)O/C(=C\Cl)c1cc(Cl)c(Cl)cc1Cl
- mutagenic call (Test System: AMES SALMONELLA TYPHIMURIUM, Strain/Indicator: TA98, Metabolic Activation: NONE): inactive; negative
- mutagenic call (Test System: AMES SALMONELLA TYPHIMURIUM, Strain/Indicator: TA98, Metabolic Activation: RAT, LIVER, S-9, AROCLOR 1254): inactive; negative
- mutagenic call (Test System: AMES SALMONELLA TYPHIMURIUM, Strain/Indicator: TA100, Metabolic Activation: NONE): inactive; negative
- mutagenic call (Test System: AMES SALMONELLA TYPHIMURIUM, Strain/Indicator: TA100, Metabolic Activation: RAT, LIVER, S-9, AROCLOR 1254): inactive; negative
- mutagenic call (Test System: AMES SALMONELLA TYPHIMURIUM, Strain/Indicator: TA102, Metabolic Activation: NONE): inactive; negative
- mutagenic call (Test System: AMES SALMONELLA TYPHIMURIUM, Strain/Indicator: TA102, Metabolic Activation: RAT, LIVER, S-9, AROCLOR 1254): inactive; negative
- mutagenic call (Test System: AMES SALMONELLA TYPHIMURIUM, Strain/Indicator: TA1535, Metabolic Activation: NONE): inactive; negative
- mutagenic call (Test System: AMES SALMONELLA TYPHIMURIUM, Strain/Indicator: TA1535, Metabolic Activation: RAT, LIVER, S-9, AROCLOR 1254): inactive; negative
- mutagenic call (Test System: AMES SALMONELLA TYPHIMURIUM, Strain/Indicator: TA1537, Metabolic Activation: NONE): inactive; negative
- mutagenic call (Test System: AMES SALMONELLA TYPHIMURIUM, Strain/Indicator: TA1537, Metabolic Activation: RAT, LIVER, S-9, AROCLOR 1254): inactive; negative
